# Like-named read-outs stand apart in the source and are kept apart here.
# How the values were obtained:
# [1] = test system: gamma-aminobutyric acid (GABA) release from insect synaptosomes; test: Release of 3H-labelled GABA from insect synaptosomes (Example H); type: biochemical; settings: 1 = most potent of five compounds
# Excerpt: Interference with gamma-aminobutyric acid (GABA) release from insect synaptosomes is thought to be important in the insecticidal action of the compounds of the invention. Using published procedures (E. G. Gray and V. P. Whittaker, Journal of Anatomy 96, 79-87 (1962); G. Levi, V. Gallo and M. Raiter, Neurochemical Research 5(3), 281-295 (1980)), compounds of Formula I were compared with related compounds outside the scope of the invention.
# Arranged in decreasing order of potency (release of ^3 H-labelled GABA), the compounds were: […]
# male Blattella germanica = test: Exposure of cockroaches to deposit on glass with piperonyl butoxide (Example B); type: in vivo; settings: 700 (+700 pb) mg m^-2
# Protocol: Knockdown was assessed after 10 and 60 minutes and mortality after 1 and 6 days.
# Sitophilus granarius = type: in vivo; settings: 200 (+1000 pb) ppm; 6 days
# [2] = test system: third instar larvae of Aedes aegypti; test: Exposure of mosquito larvae to aqueous suspension with piperonyl butoxide (Example D); type: in vivo; settings: 2.5 (+12.5 pb) ppm; 18 hours
# Protocol: Mortality was assessed after 18 hours.
# [3] = test system: female Musca domestica (WRL strain); test: Topical application to houseflies with and without piperonyl butoxide pretreatment (Example A); settings: for percent knockdown: 6 μg applied, 1 hour; for mortality at 0.006 mg: Musca domestica, topical, 24 h
# Protocol: Where pretreatment with a synergist was used, the test compound was applied 1 hour after application of the synergist (6 μg piperonyl butoxide (PB) per insect). Knockdown was assessed after 1 hour, and mortality after 24 hours.
# [4] = test system: Female houseflies (Musca domestica); test: Potentiation by other unsaturated amides in houseflies (Example G (i)); type: in vivo; settings: 6 μg PB one hour earlier
# Protocol: Female houseflies (Musca domestica) were treated with solutions of compounds of Formula I and a potential synergist both dissolved in butanone, the flies having been treated one hour earlier with 6 μg piperonyl butoxide (PB).
# The dose required to prevent flight of half the flies 10 minutes after application of the compound (KD50) was determined and the factor of potentiation (FOP) was calculated by the Equation of the Harmonic Mean for mixtures of the compounds.
# houseflies = test: Potentiation by pyrethroids, spray chamber, S-bioallethrin (Example G (ii)); type: in vivo, housefly (Musca domestica); settings: mixture ratio 45:1
# Excerpt: Solutions of the compounds were sprayed into a chamber and houseflies released into the chamber.
# [5] = test system: B. microplus pyrethroid resistant strain (Malchi); test: Larval tick immersion test, pyrethroid resistant strain (Example F); type: in vivo, Boophilus microplus; settings: larvae
# Excerpt: (§1) Larval ticks were immersed using a published method (Shaw, R. D., Cook, M. and Carson, R. E. (1968). J. Econ. Ent. 61, 1590). Mortality data are presented for B. microplus susceptible and pyrethroid resistant strain (Malchi).
# [6] = test system: fully engorged female Boophilus microplus, susceptible strain; test: Cattle tick injection test (Example F (i)); type: in vivo; settings: 14 days; for No. dead / No. laying viable eggs: 10 ticks
# Protocol: The compound was supplied as a […] solution in DMSO:Acetone (1:1). Administration of the compound was by means of a microapplicator which was preset to deliver 0.2 μl of solution. The compound in solution was injected into fully engorged female Boophilus microplus, susceptible strain, at a site just lateral to the mouthparts at the rate of 10 μg/tick. Reducing the concentration reduced the dose delivered. After injection the ticks were maintained at 24° C. and 85% RH for 14 days. At this time the ticks were examined for the presence of viable eggs which gave the percent inhibition of reproduction (% IR). The number of dead ticks was also noted.
# B. microplus Susceptible = test: Larval tick immersion test, susceptible strain (Example F); type: in vivo, Boophilus microplus; settings: larvae
# Excerpt: as §1
# female Aedes aegypti = test: Application to adult mosquitoes with piperonyl butoxide (Example E); type: in vivo; settings: 2 (4 pb) μg applied
# Protocol: Knockdown was assessed after 1 hour and mortality after 24 hours.
# [7] = test system: fully engorged female B. microplus susceptible strain; test: Cattle tick adult immersion test (Example F (ii), (iii)); type: in vivo, Boophilus microplus; settings: adults, 10 minutes immersion, 14 days
# Protocol: The compound was supplied as a 100 mg/liter solution in Esso 200/[…]. Dilution with water gave the required concentrations. Groups of 20 fully engorged female B. microplus susceptible strain were placed in a mesh basket which was immersed in the test dilution for 10 minutes. After immersion the ticks were removed, dried and then fixed to double-sided adhesive tape which was itself affixed to white plastic boards. The boards holding the ticks were held at 24° C. and 85% RH for 14 days. Individual egg masses were scored from 0-4 for quality and quantity and the total score for each group was obtained. The scores were corrected for water control oviposition, plotted on log-probit paper and the % concentration inhibiting 50% and 99% of viable oviposition determined.
# [8] = 6 μg PB pretreatment 1 hour before
# [9] = read-out: percent mortality, 6 μg applied, 6 μg PB pretreatment 1 hour before, 24 hours
# [10] = read-out: percent mortality, 6 μg applied, synergist: none, 24 hours
compound,measurement,setting,value
CC(C)CNC(=O)/C=C/CC/C=C\C=C\c1cccc(C(F)(F)F)c1,rank in decreasing order of potency (release of ^3 H-labelled GABA),[1],4
"CC(C)CNC(=O)/C=C/CC/C=C\c1ccccc1 [Example 3, N-isobutyl-7-phenylhepta-2E,6Z-dienamide]",% knockdown 10 mins,male Blattella germanica,13%
same,% knockdown 60 mins,male Blattella germanica,20%
same,% mortality 1 day,male Blattella germanica,20%
same,% mortality 6 days,male Blattella germanica,20%
same,% mortality,Sitophilus granarius,100%
same,% mortality,[2],100%
same,percent knockdown,[3]; [8],90%
same,percent knockdown,[3]; synergist: none,5%
same,mortality at 0.006 mg,[3]; [9],95%
same,mortality at 0.006 mg,[3]; [10],2.5%
"CC(C)CNC(=O)/C=C/C=C/CC/C=C\C=C\c1cccc(C(F)(F)F)c1 [Example 10, N-isobutyl-11-(3'-trifluoromethylphenyl)-(2E,4E,8Z,10E)-undecatetrenamide]",rank in decreasing order of potency (release of ^3 H-labelled GABA),[1],1
same,KD50 (dose required to prevent flight of half the flies 10 minutes after application),[4],5.6 μg/fly
"CCCCOCCOCCOCc1cc2c(cc1CCC)OCO2 [PB, piperonyl butoxide, reference compound]",mortality at 0.006 mg,[3],0%
same,knockdown,"[3]; PB alone, 6 μg per fly",0%
CC(C)CNC(=O)/C=C/CC/C=C\C=C\c1ccc2c(c1)OCO2 [reference compound],rank in decreasing order of potency (release of ^3 H-labelled GABA),[1],5
"C=CCC1=C(C)[C@@H](OC(=O)[C@@H]2[C@@H](C=C(C)C)C2(C)C)CC1=O [S-bioallethrin, reference compound]",LC50 (concentration for death of half the flies),houseflies,0.05%
"CCCCC/C=C/C=C/C(=O)NCC(C)C [N--isobutyl-(2E,4E)-decadienamide, reference compound]",KD50 (dose required to prevent flight of half the flies 10 minutes after application),[4],77 μg/fly
"CC(C)CNC(=O)/C=C/CC/C=C\C=C\c1ccccc1 [Example 9, N-isobutyl-9-phenyl-nona-2 (E),6(Z),8(E)-trienamide]",LC50,[5],0.00022%
same,% knockdown 10 mins,male Blattella germanica,7%
same,% knockdown 60 mins,male Blattella germanica,7%
same,% mortality 1 day,male Blattella germanica,33%
same,% mortality 6 days,male Blattella germanica,40%
same,% mortality,Sitophilus granarius,100%
same,No. dead,[6]; 1 μg injected,0
same,No. laying viable eggs,[6]; 1 μg injected,8
same,% IR (percent inhibition of reproduction),[6]; 1 μg injected,20%
same,No. dead,[6]; 5 μg injected,1
same,No. laying viable eggs,[6]; 5 μg injected,3
same,% IR (percent inhibition of reproduction),[6]; 5 μg injected,70%
same,No. dead,[6]; 10 μg injected,3
same,No. laying viable eggs,[6]; 10 μg injected,1
same,% IR (percent inhibition of reproduction),[6]; 10 μg injected,90%
same,mortality at 0.001 mg,"[6]; Rhipicephalus microplus, 336 h, 1 μg injected, read-out: % Kill",0%
same,mortality at 0.005 mg,"[6]; Rhipicephalus microplus, 336 h, 5 μg injected, read-out: % Kill",10%
same,mortality at 0.01 mg,"[6]; Rhipicephalus microplus, 336 h, 10 μg injected, read-out: % Kill",30%
same,LC50 (concentration for death of half the flies),houseflies,1.8%
same,% mortality,[2],100%
same,rank in decreasing order of potency (release of ^3 H-labelled GABA),[1],3
same,LC50,B. microplus Susceptible,0.00044%
same,% knockdown,female Aedes aegypti; 1 hour,70%
same,% mortality,female Aedes aegypti; 24 hours,80%
same,percent knockdown,[3]; [8],100%
same,percent knockdown,[3]; synergist: none,95%
same,mortality at 0.006 mg,[3]; [9],100%
same,mortality at 0.006 mg,[3]; [10],0%
same,KD50 (dose required to prevent flight of half the flies 10 minutes after application),[4],8.4 μg/fly
same,IR50 (% concentration inhibiting 50% of viable oviposition),[7],0.026%
same,IR99 (% concentration inhibiting 99% of viable oviposition),[7],0.1%
same,LC50,[7],0.1%
CC(C)CNC(=O)/C=C/C=C/CC/C=C\C=C\c1ccc2c(c1)OCO2 [reference compound],rank in decreasing order of potency (release of ^3 H-labelled GABA),[1],2
